Source: ChEMBL document CHEMBL1130923, “Synthesis and biological activity of 2-methyl-20-epi analogues of 1 alpha,25-dihydroxyvitamin D3” (1998)
One block for each compound: values may come before it.

Experiments:
HL-60 = assay: Cell differentiation activity towards HL-60 cells was assessed in terms of NTB reactivity; assay type: functional, Homo sapiens
Rattus norvegicus = species: Rattus norvegicus; assay: Bone calcium mobilization was tested on normal SD male rats and serum calcium level was reported; assay type: functional; parameters: unit not given beside the values
[1] = molecular target: T1, Vitamin D3 receptor (Bos taurus) (UniProt Q28037); assay: Affinity for bovine thymus VDR vitamin D receptor
T1 sequence (whole entry): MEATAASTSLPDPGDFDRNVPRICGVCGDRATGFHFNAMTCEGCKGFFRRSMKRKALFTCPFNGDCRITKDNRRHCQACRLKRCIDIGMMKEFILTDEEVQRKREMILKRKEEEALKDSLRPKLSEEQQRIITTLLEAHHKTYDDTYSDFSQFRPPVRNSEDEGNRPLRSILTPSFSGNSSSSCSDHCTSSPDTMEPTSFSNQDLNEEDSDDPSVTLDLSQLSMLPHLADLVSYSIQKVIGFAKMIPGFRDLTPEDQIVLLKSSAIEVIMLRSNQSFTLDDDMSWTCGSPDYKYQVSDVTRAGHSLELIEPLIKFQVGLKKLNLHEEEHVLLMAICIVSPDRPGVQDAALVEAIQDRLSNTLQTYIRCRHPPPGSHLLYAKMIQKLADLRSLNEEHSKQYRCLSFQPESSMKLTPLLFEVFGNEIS

Structure (SMILES): C=C1/C(=C\C=C2/CCC[C@]3(C)[C@@H]([C@H](C)CCCC(C)(C)O)CC[C@@H]23)C[C@H](O)[C@H](C)[C@H]1O
Activity (HL-60): 1
Activity [1]: < 0.1

Structure (SMILES): C=C1/C(=C\C=C2/CCC[C@]3(C)[C@@H]([C@H](C)CCCC(C)(C)O)CC[C@@H]23)C[C@H](O)[C@@H](C)[C@@H]1O
Activity (HL-60): 6
Activity [1]: < 0.1

Structure (SMILES): C=C1/C(=C\C=C2/CCC[C@]3(C)[C@@H]([C@H](C)CCCC(C)(C)O)CC[C@@H]23)C[C@@H](O)[C@@H](C)[C@H]1O
Activity (HL-60): 1
Activity [1]: < 0.1

Structure (SMILES): C=C1/C(=C\C=C2/CCC[C@]3(C)[C@@H]([C@H](C)CCCC(C)(C)O)CC[C@@H]23)C[C@H](O)[C@H](C)[C@@H]1O
Activity (HL-60): 730
Activity (Rattus norvegicus): 144
Activity [1]: 17

Second part, led by results:

Activity [1]: 100
Structure (SMILES): C=C1/C(=C\C=C2/CCC[C@]3(C)[C@@H]([C@H](C)CCCC(C)(C)O)CC[C@@H]23)C[C@@H](O)C[C@@H]1O [CALCITRIOL]
Activity (HL-60): 100
Activity (Rattus norvegicus): 100

Activity [1]: < 0.1
Structure (SMILES): C=C1/C(=C\C=C2/CCC[C@]3(C)[C@@H]([C@H](C)CCCC(C)(C)O)CC[C@@H]23)C[C@@H](O)[C@H](C)[C@H]1O
Activity (HL-60): 3

Activity [1]: 7
Structure (SMILES): C=C1/C(=C\C=C2/CCC[C@]3(C)[C@@H]([C@H](C)CCCC(C)(C)O)CC[C@@H]23)C[C@H](O)[C@@H](C)[C@H]1O
Activity (HL-60): 190
Activity (Rattus norvegicus): 19

Activity [1]: 160
Structure (SMILES): C=C1/C(=C\C=C2/CCC[C@]3(C)[C@@H]([C@H](C)CCCC(C)(C)O)CC[C@@H]23)C[C@@H](O)[C@@H](C)[C@@H]1O
Activity (HL-60): 2600
Activity (Rattus norvegicus): 115

Activity [1]: 1200
Structure (SMILES): C=C1/C(=C\C=C2/CCC[C@]3(C)[C@@H]([C@H](C)CCCC(C)(C)O)CC[C@@H]23)C[C@@H](O)[C@H](C)[C@@H]1O
Activity (HL-60): 59000
Activity (Rattus norvegicus): 655
